Values after ≈ are worked out from the molar mass of the structure shown. “Also recorded” adds a separate entry of the source. Like-named read-outs stand apart in the source and are kept apart here. Some results are limits rather than exact numbers.

The test system of data set [1] is amphetamine-induced hyperactivity. In words: Amphetamine-induced hyperactivity (AIH) in mice. The class given is in vivo, mouse. The following applies: versus vehicle.
The test system of the next data set is HL-60 and U937 cells. Description: GE-HTS 32-gene myeloid differentiation signature. It counts as cell-based. The following applies: three days.
Another data set concerns AML cell lines. Description: May-Grunwald Giemsa morphology of AML cell lines. To be noted: three days after treatment. The class given is cell-based. The procedure: On day three post-chemical treatment, cytospin preparations were performed. Changes in cellular morphology were evaluated by May-Grunwald Giemsa staining (Sigma Aldrich). Images were acquired by light microscopy at 400× magnification.

A short description of data set [2]: Pharmacokinetics and brain distribution in male C57BL/6 mice. To be noted: single i.p. dose 30 mg/kg (CHIR99021 12.5 mg/kg).
Data set [3] concerns the target T1, GSK3β (Homo sapiens, UniProt P49841). The following applies: GSK3β over GSK3α.
The conditions of data set [4]: for Mouse microsomes, % remaining: after 1 hour; for Microsomal stability 60 min: in mice.
The target of data set [5] is T1, GSK3β. Description: Mechanism of action: ATP competition at GSK3β (Lineweaver-Burk, IC50 at two ATP concentrations). It counts as biochemical. To be noted: versus ATP. The method, then:
. IC50s were measured against GSK3β at two different ATP concentrations. […]

Another data set has as its system human iPSC-NPCs. Description: Neurogenesis assay (TCF/LEF-luciferase in human iPSC-NPCs). It counts as cell-based. The following applies: 24-h treatment.
In another data set the test system is TCF/LEF reporter. Description: cells. To be noted: Homo sapiens, HEK293, read-out: TCF/LEF EC50, HEK293 cells.
The target of data set [6] is T1, GSK3β. In words: biochemical.
For data set [7], the target named is T2, GSK3α (Homo sapiens, UniProt P49840). Description: biochemical.
T2 sequence (P49840 whole entry): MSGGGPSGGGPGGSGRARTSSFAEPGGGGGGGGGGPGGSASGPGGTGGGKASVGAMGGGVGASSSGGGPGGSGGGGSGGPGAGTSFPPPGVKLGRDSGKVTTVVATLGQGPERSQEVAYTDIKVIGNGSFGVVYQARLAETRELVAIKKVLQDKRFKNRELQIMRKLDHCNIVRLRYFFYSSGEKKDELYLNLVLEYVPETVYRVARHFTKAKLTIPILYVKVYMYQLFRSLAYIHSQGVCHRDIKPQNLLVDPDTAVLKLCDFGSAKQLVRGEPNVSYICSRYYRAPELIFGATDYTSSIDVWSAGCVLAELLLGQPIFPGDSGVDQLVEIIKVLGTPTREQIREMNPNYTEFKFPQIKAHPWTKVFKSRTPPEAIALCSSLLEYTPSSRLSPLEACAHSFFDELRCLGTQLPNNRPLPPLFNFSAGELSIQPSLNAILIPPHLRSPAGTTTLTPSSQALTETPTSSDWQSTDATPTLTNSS
Data set [8] relates to β-catenin nuclear translocation. Description: β-Catenin nuclear localization assay in U2-OS cells. It counts as cell-based. The following applies: Homo sapiens, U2OS, read-out: beta-Catenin translocation EC50.
Method: U2-OS cells stably expressing two complimentary β-galactosidase fragments (one part on β-Catenin and the other constitutively expressed in the cell nucleus) were maintained in DMEM F12 supplemented with 10% FBS. When β-catenin translocates to the nucleus, the complimentary fragments form a complete β-galactosidase, the amount of which is then quantified by β-galactosidase activity (DiscoveRx). Cells were seeded in a 384-well CulturPlate (Perkin Elmer, Boston, Mass.) with 10,000 per well in 20 μL DMEM F12 containing 10% FCS, 100 U/ml penicillin and 100 m/mL streptomycin. After overnight incubation at 37° C., cells were stimulated with 100 nL test compound/well and then returned to the incubator for 6 h. Cells were disrupted using 12 μL substrate-containing lysis buffer from the PathHunter Detection Kit in the formulation specified by the supplier (DiscoveRx). Plates were incubated in the dark for 1 h at room temperature before measurement of β-galactosidase activity (luminescence) on an EnVision plate reader (PerkinElmer, Waltham, Mass.). Distance between plate and detector was 0.2 mm. Measurement time(s)=0.1; Glow (CT2) correction factor=0.
In another data set the test system is phospho-Tau (Ser199). In words: Tau phosphorylation (Ser199) ELISA in SH-SY5Y cells. The class given is cell-based. The following applies: Homo sapiens, read-out: p-Tau Inhibition ELISA EC50 SH-SY5Y. In general terms: An ELISA detects its analyte on a solid surface through an enzyme-linked reagent.
In data set [9] the target is T1, GSK3β. Description: biochemical. This is another data set of the same source.
Method: 100 nL/well compounds were pinned. […] Incubated at room temperature for 60 minutes. Added 20 μL/well of ADP-glo (Promega, V9103) with Combi, and incubated at room temperature for 40 minutes. Added 40 μL/well of ADP-glo (Promega, V9103) with Combi, incubated at room temperature for 30 minutes. Read on Envision for luminescence.
The target of data set [10] is T2, GSK3α. The following applies: for IC50: read-out: Caliper Assay, GSK3α IC50.
The conditions of data set [11]: in mice (mouse plasma), 5 hours.
Another data set is described as follows: PBS stability. It counts as physicochemical. The procedure:
Stability was determined in the presence of PBS pH 7.4 with 0.1% DMSO. Each compound was prepared in duplicate on six separate plates and allowed to equilibrate at room temperature with a 250 rpm orbital shake for 48 hours. One plate was removed at each time point (0, 2, 4, 8, 24, and 48 hours). […] Additionally, to the remaining material at each time point, acetonitrile was added to force dissolution of compound (to test for recovery of compound). An aliquot of this was also analyzed by UPLC-MS.

A further data set in a line: GSH stability. It counts as physicochemical. To be noted: after 48 hours. The procedure: Stability was determined in the presence of PBS pH […] and 50 μM glutathione with 0.1% DMSO. Each compound was prepared in duplicate on six separate plates and allowed to equilibrate at room temperature with a 250 rpm orbital shake for 48 hours. One plate was removed at each time point (0, 2, 4, 8, 24, and 48 hours). […] Additionally, to the remaining material at each time point, acetonitrile was added to force dissolution of compound (to test for recovery of compound). An aliquot of this was also analyzed by UPLC-MS.

A further data set in a line: in vitro. The following applies: mouse, plasma, pH 7.4.

T1 sequence (P49841 whole entry): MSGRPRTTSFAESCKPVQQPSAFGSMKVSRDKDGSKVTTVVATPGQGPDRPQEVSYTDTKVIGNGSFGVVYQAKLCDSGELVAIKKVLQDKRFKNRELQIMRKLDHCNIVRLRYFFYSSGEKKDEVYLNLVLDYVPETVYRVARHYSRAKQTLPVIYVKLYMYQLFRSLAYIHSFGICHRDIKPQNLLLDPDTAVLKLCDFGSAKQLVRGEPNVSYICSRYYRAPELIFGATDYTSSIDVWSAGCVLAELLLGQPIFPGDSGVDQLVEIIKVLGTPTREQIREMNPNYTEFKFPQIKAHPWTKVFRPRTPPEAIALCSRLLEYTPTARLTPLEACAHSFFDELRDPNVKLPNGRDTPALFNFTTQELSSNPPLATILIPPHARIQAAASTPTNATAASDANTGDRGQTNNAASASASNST
From the text for HL-60 and U937 cells: This assay uses ligation-mediated amplification with a fluorescent bead-based detection system to quantify the expression of up to 500 genes in a single well. Two primary scoring methods are used to quantify induction of the 32-gene myeloid differentiation signature. The Summed Score combines expression ratios (marker gene/control gene) by summing them with a sign determined by the expected direction of regulation from ATRA-treated positive controls. The Weighted Summed Score combines expression ratios by summing them with a weight and sign determined by the signal-to-noise ratio of each expression ratio for the positive control (ATRA-treated) and negative control (DMSO-treated) samples. To assess the statistical significance of the differences between these differentiation scores a one-way ANOVA with a Bonferroni correction as a post-hoc test was employed.
Method for TCF/LEF reporter: HEK293-pBARL cells were derived from HEK293 cells and they stably expressed a firefly-luciferase reporter gene driven by a promoter containing 12 copies of TCF/LEF binding sequences. These cells were maintained in DMEM and supplemented with 10% FBS and 1% penicillin-streptomycin (Invitrogen). Reporter gene assays were conducted in anti-biotic free media. […] These cells also contained a renilla-luciferase reporter gene driven by the ubiquitous EF1α promoter as a control. HEK293-pBarl reporter cell lines were seeded into 384-well culture plates (Corning) at 6000 cells/well. 24 hours after plating, cells were treated overnight with relevant compounds and assayed using DualGlo assay kit (Promega). Luminescent intensities were read by EnVision (PerkinElmer, Waltham, Mass.). Firefly luciferase intensity is normalized by renilla luciferase intensity.
Cells were cultured in 384 well plates to appropriate density (40 μl total plating volume). 24 hours after plating, cells were treated with 100 nl compounds. 24 hours after incubation with compounds (48 hours after plating), assay reagents were prepared by mixing Luciferase Assay solution with Luciferase substrate and Stop & Glo solution to Stop & Glo substrate (extra reagents can be aliquoted and frozen for future use and are stable for at least one freeze/thaw cycle). […] The plate was spun down and 10 minutes were allowed for signal stabilization. Luciferase signal on the Perkin Elmer EnVision using the following parameters: Distance between plate & detector (mm)=0.2; Measurement time(s)=0.1; Glow (CT2) correction factor=0. Once the initial data is secure, a volume of Stop & Glo was added equal to each well equal to the volume of Luciferase reagent added above (If 10 μl Luciferase Reagent was added, 10 μl Stop & Glo was also added). The plate was spun down and 10 minutes were allowed for signal stabilization. The plate was read on the EnVision using the same parameters detailed above.
Method for human iPSC-NPCs: Human neuroprogenitor cells were generated and derived according to methods known in the art. […] Single-cell suspensions were prepared from the human iPSC-NPCs, stably integrated with the TCF/LEF-luciferase reporter, and dispensed into 96- or 384-well plates at the seeding densities of 20,000 or 6,000 per well, respectively, using a Matrix WellMate (Thermo Scientific) microplate dispenser. A 96-well plate format was used for measuring Wnt3a and lithium (lithium chloride solution, 10 M; Fluka, St. Louis, Mo.) dose-response effects, whereas a 384-well plate format was used for all small-molecule probe treatments and chemical screening. The next day, cells were subjected to various 24-h treatments. Just prior to the luminescence reading, the plates were taken out of a 37° C. incubator and equilibrated to room temperature for 30 min before the SteadyGlo reagent (Promega, Madison, Wis.) was dispensed (volume equal 1:1 SteadyGlo:culture medium). Luminescence was measured after a 10-min incubation using an EnVision multilabel plate reader (PerkinElmer, Waltham, Mass.).
Method for in vitro: Plasma protein binding was determined by equilibrium dialysis using the Rapid Equilibrium Dialysis (RED) device (Pierce Biotechnology, Rockford, Ill.) for both human and mouse plasma. […] Compounds were incubated at 37° C. for 5 hours with a 250 rpm orbital shake.
Method for panel of 311 kinases: Briefly, a selection of compounds was screened against a panel of kinases at a single concentration of 10 μM. […] This was completed utilizing one of two assays depending on the kinase being examined.
Test compounds were dissolved in and diluted with dimethylsulfoxide (DMSO) to generate a 100× sample solution. These were then diluted to 4× sample solutions in assay buffer to make the final test compound solutions. Reference compounds for assay control were prepared similarly.
A solution of IMAP binding reagent (IMAP Screening Express kit; Molecular Devices) (60 μL) was added to each well and incubated for 30 minutes.
A solution of termination buffer (QuickScout Screening assist MSA; Carna Biosciences) (60 μL) was added to each well. The entire reaction mixture was then applied to a LabChip3000 system (Caliper Life Science) and the product and substrate peptide peaks were separated and quantified.
Method for phospho-Tau (Ser199): SH-SY5Y cells were maintained in DMEM supplemented with 10% heat-inactivated FBS and 1% penicillin-streptomycin (Invitrogen) unless otherwise stated. ELISA kits for phospho-Tau (Ser199) and total Tau detection were purchased from Invitrogen (KHB0041, and KHB7041 respectively). Briefly, SH-SY5Y cells were seeded at 50,000 cells/200 μL/well in 96 well plates and after overnight incubation, treated with various doses of chemical compounds at 0.2 μL/well. The next day cells were washed with PBS twice before being lysed in 100 μL Lysis buffer/well. 50 μL of cell lysate of each sample was transferred to an ELISA vial coated with the capture antibody, and the mixture was incubated at room temperature for 2 hours, before the supernatant was aspired, and each vial washed four times. 100 μL of detection antibody was then added to each well, incubated for 1 hour, and then washed four times. […] Data were scaled using the positive and neutral controls and fitted for IC50.
A standard protocol using an immunoassay kit to quantify total Tau protein and phospho-Tau (Ser199) protein in SH-SY5Y human neuroblastoma cells was employed. Human Tau (Total) ELISA kit (#KHB0041) and human phosphor-Tau (Ser199) ELISA kit were purchased from Invitrogen (#KHB7041)
50,000 cells were seeded in 200 μl per well in cell culture media (250,000 cells/ml). Cells were incubated overnight @ 37° C. Cells were induced with appropriate doses of inhibitors and incubated for approximately 24 hrs @ 37° C. Cell lysates were harvested by washing cells once with cold PBS and adding 100 μl cold lysis buffer and pipette up and down vigorously. Lysate was transferred to 96 well PCR plate and centrifuged at 4,000 rpm for 20 minutes at 4° C.
Well strips were warmed and inserted into the frame. 100μ of standard diluent buffer were loaded into ZERO wells, and 100 ul of each standard concentrations (both total Tau and pTau) were loaded into wells in duplicate. Samples were loaded to each well that would be analyzed for total Tau, 85 μl standard diluent buffer and 15 μl cell lysate were added. To each well that will be analyzed for pTau (Ser199) 50 μl standard diluent buffer+50 μl cell lysate were added. Plates were tapped gently on the side to mix. Certain wells were left empty for chromogen blank. Plates were covered and incubated for 2 hours at room temperature. Wells were aspirated 4 times (400 μl diluted wash buffer, left for 30 seconds, aspirated all wells; alternatively used automated plate washer and programmed in a 30 second hold between each cycle). 100 μl of detection antibody solution were added to each well except chromogen blanks. Anti-total Tau was added to wells being analyzed for total Tau, anti-pTau (Ser199) was added to wells being analyzed for pTau (Ser199), and plates were tapped gently on the side to mix. Plates were covered and incubated for 1 hour at room temperature, then wells were aspirated and washed 4 times as described above. 100 μl of anti-rabbit IgG HRP working solution (prepared ahead) were added to each well except chromogen blanks, and plates were covered and incubated for 30 minutes at room temperature, then wells were aspirated and washed 4 times as described above. 100 μl of stabilized chromogen were added to each well (the liquid turned blue). Plates were incubates for 30 minutes at room temperature in the dark, then 100 μl of stop solution were added to each well, and plates were tapped gently on the side to mix. Absorbance of each well was read at 450 nm (within 2 hours of adding stop solution).
Method for physchem: Solubility was determined in phosphate buffered saline (PBS) pH 7.4 with 1% DMSO. Each compound was prepared in duplicate at 100 μM in both 100% DMSO and PBS with 1% DMSO. Compounds were allowed to equilibrate at room temperature with a 250 rpm orbital shake for 24 hours.

For `CC1(C)CC(=O)C2=C(C1)Nc1n[nH]c(C(F)(F)F)c1C2(C)c1ccccc1` (racemic) [Compound 70, 4,7,7-trimethyl-4-phenyl-3-(trifluoromethyl)-6,7,8,9-tetrahydro-2H-pyrazolo[3,4-b]quinolin-5(4H)-one], the “Amphetamine-induced hyperactivity, i.p.” value in [1] (systemic intraperitoneal injection) was “attenuate amphetamine-induced hyperactivity”. In the data set on HL-60 and U937 cells, the “AML differentiation by GE-HTS signature” value is on record as “induces AML (acute myeloid leukemia) differentiation by GE-HTS signature; also recorded: induced a gene expression signature in AML cell lines consistent with myeloid differentiation”. For the same compound, the “Morphological AML differentiation (May-Grunwald Giemsa)” value in the data set with AML cell lines was “induces morphological evidence of AML (acute myeloid leukemia) differentiation”; with AML cell lines (listed as compound 70) it was “demonstrated cellular differentiation”. Moreover, the “Pharmacokinetic profile (systemic exposure, brain distribution) compared to CHIR99021” value in [2] is recorded as “improved pharmacokinetic profile”. This compound also displayed a GSK3β fold selectivity at GSK3β [3] of 5 fold.
With `COc1ccccc1C1C2=C(CC(C)(C)CC2=O)Nc2n[nH]c(C(F)(F)F)c21` (racemic) [racemic probe, 4-(2-methoxyphenyl)-7,7-dimethyl-3-(trifluoromethyl)-6,7,8,9-tetrahydro-2H-pyrazolo[3,4-b]quinolin-5(4H)-one], the “Mouse microsomes, % remaining” value in data set [4] was below 1%.
As for `Cc1c[nH]c(-c2cnc(NCCNc3ccc(C#N)cn3)nc2-c2ccc(Cl)cc2Cl)n1` [CHIR99021, reference compound], the “Number of kinases inhibited greater than 50% at 10 μM” value in the data set with panel of 311 kinases (panel of 311 kinases, 10 μM) amounted to 21.
For `COc1ccccc1[C@@H]1C2=C(CC(C)(C)CC2=O)Nc2n[nH]c(C)c21` [Compound 22], the “Amphetamine-induced hyperactivity, ICV” value in [1] (intracerebroventricular injection) is listed as “attenuate amphetamine-induced hyperactivity”. Also, the “Mode of inhibition of GSK3β” value at GSK3β [5] was “competitive inhibition”. In addition, the Neurogenesis result in the data set with human iPSC-NPCs is recorded as “promoted neurogenesis”.
For the compound `Cc1[nH]nc2c1C(C1CC1)C1=C(CC(C)(C)CC1=O)N2` (stereo not drawn) [Compound 43], the EC50 with TCF/LEF reporter was above 25 µM; in data set [8] it was above 50 µM; in the data set with phospho-Tau (Ser199), above 30000 nM. Further, the IC50 at GSK3β [6], at GSK3α [7] and against GSK3β [9] was 1 to 5 µM throughout.
Take `CC1(C)CC(=O)C2=C(C1)Nc1n[nH]c(C(F)(F)F)c1C2c1ccccc1` (stereo not drawn) [Compound 52]: the figures for the EC50 (in the data set on TCF/LEF reporter; in [8]; with phospho-Tau (Ser199)) were 9.32 µM, 13.1 µM and 507 nM, respectively. Moreover, the IC50 (in general, the point on the concentration scale where inhibition reaches its midpoint) at GSK3α [10] was below 100 nM.
Turning to `COc1ccccc1[C@@H]1C2=C(CC(C)(C)CC2=O)Nc2n[nH]c(C(F)(F)F)c21` [Compound 54, (R)-4-(2-methoxyphenyl)-7,7-dimethyl-3-(trifluoromethyl)-6,7,8,9-tetrahydro-2H-pyrazolo[3,4-b]quinolin-5(4H)-one], the “Plasma stability % remaining” value in data set [11] was determined as 99%. Further, the recovery at 48 h in “PBS stability” (PBS, pH 7.4, after 48 hours of incubation, read-out: PBS stability, % still present (acetonitrile recovery)) is above 95%. Moreover, in “PBS stability” (over 48 hours, reflects kinetic solubility), the “Concentration in PBS (0.1% DMSO) over time” value was “about 200%”. Besides, in the data set “GSH stability”, the “Glutathione (GSH) stability, % remaining” value was 99%. Also, the “Mode of inhibition of GSK3β” value on GSK3β [5] is “ATP-competitive inhibition”. Further, in data set [4] (M), the “Microsomal Stability” value is listed as “M: 0%”. In the data set with panel of 311 kinases, the “Percent of the kinome (311 kinases) inhibited” value amounted to 2.6%.
Regarding `CC1(C)CC(=O)C2=C(C1)Nc1n[nH]c(C(F)(F)F)c1C2c1cccc(F)c1C(F)(F)F` (stereo not drawn) [Compound 63], the EC50 in the data set on TCF/LEF reporter turned out to be 4.83 µM; in [8] it was 3.34 µM; with phospho-Tau (Ser199) it was 1380 nM. Also, at GSK3α [10], the IC50 was below 100 nM.
Consider `Cc1[nH]nc2c1C(C)(c1ccccc1)C1=C(CC(C)(C)CC1=O)N2` (stereo not drawn) [Compound 67], for which, on GSK3α [10] (GSK3α over GSK3β), the GSK3α fold selectivity worked out at 5.2 fold. Also, in data set [4], the “Mouse microsomes, % remaining” value was 32% and the “Microsomal stability 60 min” value came to 32.
Consider `Cc1[nH]nc2c1C(c1ccccc1)(C(F)(F)F)C1=C(CC(C)(C)CC1=O)N2` (stereo not drawn) [Compound 83], for which, on GSK3α [10], the IC50 is below 100 nM. For the same compound, in the data set “in vitro”, the fraction unbound (usually free concentration divided by total concentration) at 5 h, 5 μM was 0.102. In addition, the solubility (usually how much of the substance goes into solution per volume) in “physchem” amounted to 410 µM (≈ 154 µg/mL). Moreover, the “Microsomal stability 60 min” value in data set [4] is 51.5.

Source of the values: patent US20160375006A1, “USES OF PARALOG-SELECTIVE INHIBITORS OF GSK3 KINASES” (priority 2012, published 2016).
